How the values were obtained:
Assay in all cases: Kinase panel profiling at 1 µmol/L (mobility shift assay, Carna)
Type in all cases: biochemical
Settings in all cases: 1 µmol/L of BTK inhibitor
[1] = biological target: T1, ACK (Homo sapiens, UniProt Q07912)
T1 construct: purchased Carna Biosciences

[2] = biological target: T2, ARG (Homo sapiens, UniProt P42684)
T2 construct: purchased Carna Biosciences

[3] = biological target: T3, NuaK2 (Homo sapiens, UniProt Q9H093)
T3 construct: purchased Carna Biosciences
T3 sequence (Q9H093 1-628): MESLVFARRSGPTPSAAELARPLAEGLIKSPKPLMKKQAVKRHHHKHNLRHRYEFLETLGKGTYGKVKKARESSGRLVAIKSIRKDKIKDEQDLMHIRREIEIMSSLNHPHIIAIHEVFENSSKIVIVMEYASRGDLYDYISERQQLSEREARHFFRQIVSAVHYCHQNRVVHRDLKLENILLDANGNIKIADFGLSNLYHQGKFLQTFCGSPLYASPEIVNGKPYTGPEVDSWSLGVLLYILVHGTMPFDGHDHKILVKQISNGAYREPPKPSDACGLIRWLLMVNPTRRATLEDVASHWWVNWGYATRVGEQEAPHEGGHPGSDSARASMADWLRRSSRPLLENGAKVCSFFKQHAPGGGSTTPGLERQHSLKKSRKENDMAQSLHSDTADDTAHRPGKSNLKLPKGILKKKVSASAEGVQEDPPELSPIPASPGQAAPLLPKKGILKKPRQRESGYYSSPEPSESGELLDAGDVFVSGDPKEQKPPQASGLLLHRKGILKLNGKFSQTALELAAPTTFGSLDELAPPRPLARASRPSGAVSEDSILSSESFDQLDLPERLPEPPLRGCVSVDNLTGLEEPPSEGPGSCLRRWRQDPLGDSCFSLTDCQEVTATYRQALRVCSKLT

[4] = biological target: T4, MRCKβ (Homo sapiens, UniProt Q9Y5S2)
T4 construct: purchased Carna Biosciences

[5] = biological target: T5, TRKA (Homo sapiens, UniProt P04629)
T5 construct: purchased Carna Biosciences

[6] = biological target: T6, SGK2 (Homo sapiens, UniProt Q9HBY8)
T6 construct: purchased Carna Biosciences
T6 sequence (Q9HBY8 1-367): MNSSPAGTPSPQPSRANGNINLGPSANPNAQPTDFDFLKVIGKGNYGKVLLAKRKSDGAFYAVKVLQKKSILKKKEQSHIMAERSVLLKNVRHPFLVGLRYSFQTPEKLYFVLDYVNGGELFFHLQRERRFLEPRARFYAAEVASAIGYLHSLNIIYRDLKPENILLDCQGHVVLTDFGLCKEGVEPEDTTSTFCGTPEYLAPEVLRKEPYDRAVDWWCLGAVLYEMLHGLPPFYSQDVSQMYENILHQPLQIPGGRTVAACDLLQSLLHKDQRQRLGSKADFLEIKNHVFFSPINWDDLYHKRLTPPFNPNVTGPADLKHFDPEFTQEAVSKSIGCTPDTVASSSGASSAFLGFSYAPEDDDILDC

[7] = biological target: T7, IRR (Homo sapiens, UniProt P14616)
T7 construct: purchased Carna Biosciences

[8] = biological target: T8, FLT1 (Homo sapiens, UniProt P17948)
T8 construct: purchased Carna Biosciences

[9] = biological target: T9, NEK1 (Homo sapiens, UniProt Q96PY6)
T9 construct: purchased Carna Biosciences
T9 sequence (Q96PY6 1-1258): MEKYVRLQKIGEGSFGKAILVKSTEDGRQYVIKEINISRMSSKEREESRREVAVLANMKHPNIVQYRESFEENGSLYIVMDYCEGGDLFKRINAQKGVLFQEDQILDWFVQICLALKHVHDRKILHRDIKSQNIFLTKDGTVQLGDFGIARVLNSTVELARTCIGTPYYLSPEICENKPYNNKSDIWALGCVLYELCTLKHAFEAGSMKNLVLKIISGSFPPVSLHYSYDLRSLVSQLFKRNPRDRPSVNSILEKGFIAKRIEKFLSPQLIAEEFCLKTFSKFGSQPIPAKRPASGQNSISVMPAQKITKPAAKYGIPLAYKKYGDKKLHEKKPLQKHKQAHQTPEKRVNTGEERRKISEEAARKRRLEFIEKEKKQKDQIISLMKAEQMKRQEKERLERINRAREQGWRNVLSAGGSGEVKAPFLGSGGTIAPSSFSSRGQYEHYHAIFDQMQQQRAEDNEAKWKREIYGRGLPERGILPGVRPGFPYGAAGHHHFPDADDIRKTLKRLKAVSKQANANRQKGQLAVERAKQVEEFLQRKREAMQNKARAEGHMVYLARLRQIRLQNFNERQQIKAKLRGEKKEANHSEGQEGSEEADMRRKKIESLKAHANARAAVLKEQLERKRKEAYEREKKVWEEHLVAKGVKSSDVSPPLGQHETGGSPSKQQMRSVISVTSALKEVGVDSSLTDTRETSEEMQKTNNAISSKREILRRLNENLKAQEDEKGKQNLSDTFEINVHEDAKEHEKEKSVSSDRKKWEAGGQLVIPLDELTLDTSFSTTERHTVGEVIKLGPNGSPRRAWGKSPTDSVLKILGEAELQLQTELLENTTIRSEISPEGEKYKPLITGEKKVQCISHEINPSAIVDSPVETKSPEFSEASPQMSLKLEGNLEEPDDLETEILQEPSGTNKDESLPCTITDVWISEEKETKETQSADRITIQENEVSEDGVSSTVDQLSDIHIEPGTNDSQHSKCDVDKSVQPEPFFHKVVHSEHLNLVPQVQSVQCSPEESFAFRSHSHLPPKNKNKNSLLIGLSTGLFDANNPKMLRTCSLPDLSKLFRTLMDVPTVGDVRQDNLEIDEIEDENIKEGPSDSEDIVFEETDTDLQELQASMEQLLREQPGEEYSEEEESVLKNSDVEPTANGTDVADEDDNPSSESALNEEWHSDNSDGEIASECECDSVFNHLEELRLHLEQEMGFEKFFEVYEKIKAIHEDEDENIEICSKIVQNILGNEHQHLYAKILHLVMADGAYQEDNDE

[10] = biological target: T10, BLK (Homo sapiens, UniProt P51451)
T10 construct: purchased Carna Biosciences

[11] = biological target: T11, PKACβ (Homo sapiens, UniProt P22694)
T11 construct: purchased Carna Biosciences

[12] = biological target: T12, BUB1/BUB3 (Homo sapiens, UniProt O43683)
T12 construct: purchased Carna Biosciences

[13] = biological target: T13, TRKB (Homo sapiens, UniProt Q16620)
T13 construct: purchased Carna Biosciences

[14] = biological target: T14, CK2α1/β (Homo sapiens, UniProt P68400)
T14 construct: purchased Carna Biosciences

T8 sequence (P17948 27-1338): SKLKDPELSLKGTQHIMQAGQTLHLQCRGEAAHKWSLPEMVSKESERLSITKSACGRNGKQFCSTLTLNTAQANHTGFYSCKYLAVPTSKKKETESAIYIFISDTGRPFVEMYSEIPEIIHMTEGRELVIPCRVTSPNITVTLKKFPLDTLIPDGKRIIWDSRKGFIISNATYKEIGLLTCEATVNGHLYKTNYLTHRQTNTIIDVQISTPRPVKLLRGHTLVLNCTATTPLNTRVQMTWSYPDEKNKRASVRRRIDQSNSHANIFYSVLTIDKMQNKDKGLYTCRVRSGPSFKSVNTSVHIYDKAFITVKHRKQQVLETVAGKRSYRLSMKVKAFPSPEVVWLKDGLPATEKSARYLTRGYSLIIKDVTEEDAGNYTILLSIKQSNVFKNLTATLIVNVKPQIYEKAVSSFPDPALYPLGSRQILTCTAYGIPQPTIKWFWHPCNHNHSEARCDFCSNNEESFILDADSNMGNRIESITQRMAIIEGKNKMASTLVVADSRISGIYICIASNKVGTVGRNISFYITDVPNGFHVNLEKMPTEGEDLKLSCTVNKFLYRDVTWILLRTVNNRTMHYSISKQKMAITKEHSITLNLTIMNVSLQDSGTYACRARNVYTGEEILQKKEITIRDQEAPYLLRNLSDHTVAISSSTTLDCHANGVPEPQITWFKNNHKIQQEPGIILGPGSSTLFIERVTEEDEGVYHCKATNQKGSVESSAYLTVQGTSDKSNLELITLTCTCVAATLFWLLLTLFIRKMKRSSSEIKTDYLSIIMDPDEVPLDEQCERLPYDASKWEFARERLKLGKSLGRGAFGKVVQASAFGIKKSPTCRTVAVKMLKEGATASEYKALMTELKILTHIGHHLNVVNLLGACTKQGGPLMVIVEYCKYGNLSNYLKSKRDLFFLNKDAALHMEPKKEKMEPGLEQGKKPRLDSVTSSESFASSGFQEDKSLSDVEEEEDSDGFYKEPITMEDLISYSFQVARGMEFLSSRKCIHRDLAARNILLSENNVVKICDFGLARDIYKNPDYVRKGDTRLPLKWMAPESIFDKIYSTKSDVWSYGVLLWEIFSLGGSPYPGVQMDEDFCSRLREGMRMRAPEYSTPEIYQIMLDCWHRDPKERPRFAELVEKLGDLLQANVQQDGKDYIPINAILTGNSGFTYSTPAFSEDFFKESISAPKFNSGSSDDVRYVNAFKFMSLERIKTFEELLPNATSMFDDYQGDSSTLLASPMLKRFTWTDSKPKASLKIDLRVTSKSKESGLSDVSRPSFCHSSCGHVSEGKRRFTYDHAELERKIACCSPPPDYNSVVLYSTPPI
T5 sequence (P04629 33-796): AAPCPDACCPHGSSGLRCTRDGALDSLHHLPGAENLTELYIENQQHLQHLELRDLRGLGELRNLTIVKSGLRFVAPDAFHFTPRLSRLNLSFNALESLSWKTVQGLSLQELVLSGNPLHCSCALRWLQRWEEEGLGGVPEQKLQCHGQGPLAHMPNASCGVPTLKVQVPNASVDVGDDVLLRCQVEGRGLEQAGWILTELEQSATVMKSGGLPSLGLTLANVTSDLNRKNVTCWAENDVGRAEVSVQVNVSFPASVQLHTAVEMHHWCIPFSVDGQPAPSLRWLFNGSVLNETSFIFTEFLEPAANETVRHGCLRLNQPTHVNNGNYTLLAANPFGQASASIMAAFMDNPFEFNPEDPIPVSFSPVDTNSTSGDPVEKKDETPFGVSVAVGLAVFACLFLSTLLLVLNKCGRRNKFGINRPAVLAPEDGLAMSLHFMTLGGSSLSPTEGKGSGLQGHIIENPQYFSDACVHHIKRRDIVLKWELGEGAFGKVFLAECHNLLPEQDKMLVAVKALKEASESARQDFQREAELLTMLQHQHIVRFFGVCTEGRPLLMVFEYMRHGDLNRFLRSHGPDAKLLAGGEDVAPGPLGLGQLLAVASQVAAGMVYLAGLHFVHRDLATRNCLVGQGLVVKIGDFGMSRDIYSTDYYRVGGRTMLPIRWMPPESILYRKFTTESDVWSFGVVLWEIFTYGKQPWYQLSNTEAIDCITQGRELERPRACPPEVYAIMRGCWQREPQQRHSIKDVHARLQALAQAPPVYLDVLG
T7 sequence (P14616 27-1297): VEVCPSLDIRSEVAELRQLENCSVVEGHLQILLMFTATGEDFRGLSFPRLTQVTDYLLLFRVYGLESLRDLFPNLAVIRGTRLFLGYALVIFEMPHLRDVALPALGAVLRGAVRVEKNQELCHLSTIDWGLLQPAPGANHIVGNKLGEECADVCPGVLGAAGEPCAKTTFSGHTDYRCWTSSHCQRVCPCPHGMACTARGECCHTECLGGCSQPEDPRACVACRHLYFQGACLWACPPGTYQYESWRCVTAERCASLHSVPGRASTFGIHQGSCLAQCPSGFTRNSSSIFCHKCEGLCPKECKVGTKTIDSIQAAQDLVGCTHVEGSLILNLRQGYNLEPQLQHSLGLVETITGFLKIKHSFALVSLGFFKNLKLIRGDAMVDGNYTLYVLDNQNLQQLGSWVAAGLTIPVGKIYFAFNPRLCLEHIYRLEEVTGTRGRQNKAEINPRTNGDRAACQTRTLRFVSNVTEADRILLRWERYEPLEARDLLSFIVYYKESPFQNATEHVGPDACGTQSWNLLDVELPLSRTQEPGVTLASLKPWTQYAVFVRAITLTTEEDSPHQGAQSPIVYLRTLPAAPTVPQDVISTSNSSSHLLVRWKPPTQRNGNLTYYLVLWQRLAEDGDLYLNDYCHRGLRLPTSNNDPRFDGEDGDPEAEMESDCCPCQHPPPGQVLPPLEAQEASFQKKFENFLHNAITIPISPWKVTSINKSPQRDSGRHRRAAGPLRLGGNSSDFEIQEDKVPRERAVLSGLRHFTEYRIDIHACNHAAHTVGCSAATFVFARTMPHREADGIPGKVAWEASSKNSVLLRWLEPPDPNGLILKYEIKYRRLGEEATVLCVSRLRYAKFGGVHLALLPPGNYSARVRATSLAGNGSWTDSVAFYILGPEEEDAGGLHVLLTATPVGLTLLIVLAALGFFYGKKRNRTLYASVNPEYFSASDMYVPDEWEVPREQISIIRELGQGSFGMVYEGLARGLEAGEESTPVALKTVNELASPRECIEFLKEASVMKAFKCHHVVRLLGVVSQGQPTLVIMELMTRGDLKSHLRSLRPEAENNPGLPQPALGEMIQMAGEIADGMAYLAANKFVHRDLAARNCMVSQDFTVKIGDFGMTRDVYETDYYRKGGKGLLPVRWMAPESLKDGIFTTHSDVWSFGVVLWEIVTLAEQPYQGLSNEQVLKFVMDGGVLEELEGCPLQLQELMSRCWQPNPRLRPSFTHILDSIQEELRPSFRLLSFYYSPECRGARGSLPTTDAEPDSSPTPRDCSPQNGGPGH
T2 sequence (P42684 whole entry): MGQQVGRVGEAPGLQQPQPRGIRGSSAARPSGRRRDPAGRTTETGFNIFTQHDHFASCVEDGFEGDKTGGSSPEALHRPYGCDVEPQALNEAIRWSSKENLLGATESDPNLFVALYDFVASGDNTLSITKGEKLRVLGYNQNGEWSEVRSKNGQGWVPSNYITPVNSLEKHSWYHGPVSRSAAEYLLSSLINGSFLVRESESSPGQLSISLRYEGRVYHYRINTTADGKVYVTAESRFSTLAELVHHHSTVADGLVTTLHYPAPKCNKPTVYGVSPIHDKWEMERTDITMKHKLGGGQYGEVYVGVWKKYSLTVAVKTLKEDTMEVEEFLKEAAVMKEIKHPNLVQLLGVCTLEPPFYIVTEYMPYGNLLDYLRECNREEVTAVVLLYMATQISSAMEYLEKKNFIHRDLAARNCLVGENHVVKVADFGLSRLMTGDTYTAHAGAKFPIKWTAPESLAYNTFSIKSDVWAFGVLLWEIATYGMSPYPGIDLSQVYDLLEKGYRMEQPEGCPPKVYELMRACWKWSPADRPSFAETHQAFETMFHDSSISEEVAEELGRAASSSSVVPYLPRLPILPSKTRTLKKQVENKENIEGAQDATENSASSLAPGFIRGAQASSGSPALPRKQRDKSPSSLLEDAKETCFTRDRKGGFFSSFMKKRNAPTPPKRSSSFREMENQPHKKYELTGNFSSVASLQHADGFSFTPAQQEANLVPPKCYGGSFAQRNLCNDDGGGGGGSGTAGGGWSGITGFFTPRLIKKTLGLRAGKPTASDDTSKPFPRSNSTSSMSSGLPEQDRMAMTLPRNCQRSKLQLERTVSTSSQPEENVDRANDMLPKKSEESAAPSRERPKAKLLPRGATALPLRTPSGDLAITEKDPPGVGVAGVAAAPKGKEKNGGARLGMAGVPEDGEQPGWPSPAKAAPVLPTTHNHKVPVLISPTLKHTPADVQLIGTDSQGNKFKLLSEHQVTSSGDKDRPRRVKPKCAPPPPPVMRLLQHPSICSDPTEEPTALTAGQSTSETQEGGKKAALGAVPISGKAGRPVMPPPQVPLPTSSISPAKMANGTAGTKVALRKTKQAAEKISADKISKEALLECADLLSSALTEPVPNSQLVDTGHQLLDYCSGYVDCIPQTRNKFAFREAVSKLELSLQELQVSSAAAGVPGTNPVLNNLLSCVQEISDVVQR
T10 sequence (P51451 whole entry): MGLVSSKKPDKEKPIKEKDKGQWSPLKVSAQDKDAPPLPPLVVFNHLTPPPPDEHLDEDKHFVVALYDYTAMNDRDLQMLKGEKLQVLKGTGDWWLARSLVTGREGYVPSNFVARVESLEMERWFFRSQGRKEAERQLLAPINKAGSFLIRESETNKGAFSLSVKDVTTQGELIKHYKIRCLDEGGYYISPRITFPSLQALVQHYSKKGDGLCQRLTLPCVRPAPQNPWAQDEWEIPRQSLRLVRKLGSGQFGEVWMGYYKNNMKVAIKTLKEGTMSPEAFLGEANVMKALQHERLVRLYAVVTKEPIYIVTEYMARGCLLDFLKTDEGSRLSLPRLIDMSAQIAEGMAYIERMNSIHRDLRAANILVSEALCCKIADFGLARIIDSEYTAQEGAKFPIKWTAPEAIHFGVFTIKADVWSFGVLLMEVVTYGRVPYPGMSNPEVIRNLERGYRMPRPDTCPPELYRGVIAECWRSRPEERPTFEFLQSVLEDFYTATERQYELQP

Row | SMILES | Percentage inhibition of kinase enzyme activity [1] | Percentage inhibition of kinase enzyme activity [2] | Percentage inhibition of kinase enzyme activity [3] | Percentage inhibition of kinase enzyme activity [4] | Percentage inhibition of kinase enzyme activity [5] | Percentage inhibition of kinase enzyme activity [6] | Percentage inhibition of kinase enzyme activity [7] | Percentage inhibition of kinase enzyme activity [8] | Percentage inhibition of kinase enzyme activity [9] | Percentage inhibition of kinase enzyme activity [10] | Percentage inhibition of kinase enzyme activity [11] | Percentage inhibition of kinase enzyme activity [12] | Percentage inhibition of kinase enzyme activity [13] | Percentage inhibition of kinase enzyme activity [14]
1 | CC#CC(=O)N1CCC[C@H]1c1nc(-c2ccc(C(=O)Nc3ccccn3)cc2)c2c(N)nccn12 [acalabrutinib] | 14.06% | 3.53% | 3.11% | -15.91% | 12.80% | -19.42% | -0.87% | -1.14% | -7.46% | 8.43% | -13.09% | 5.51% | 13.81% | 5.34%
2 | C=CC(=O)N1CCC[C@@H](n2nc(-c3ccc(Oc4ccccc4)cc3)c3c(N)ncnc32)C1 [ibrutinib] | 72.74% | 6.86% | 6.37% | -7.55% | 59.18% |  | 11.54% | 72.57% | 3.73% | 101.19% | -9.04% | 5.19% | 25.78% | -11.11%
3 | O=C(c1ccc(Oc2ccccc2)cc1Cl)c1c[nH]c2ncnc(N[C@@H]3CC[C@@H](CO)OC3)c12 [nemtabrutinib] | 98.62% | 62.68% | 24.70% | -5.25% | 99.52% | 2.52% | 77.13% | 87.14% | -1.75% | 102.70% | 12.59% | -0.62% | 101.64% | -2.75%
4 | C=CC(=O)N1CCC([C@@H]2CCNc3c(C(N)=O)c(-c4ccc(Oc5ccccc5)cc4)nn32)CC1 [zanubrutinib] |  |  |  |  |  |  | 34.27% | 22.02% |  | 98.41% |  |  |  | 
5 | COc1ccc(F)cc1C(=O)NCc1ccc(-c2nn([C@@H](C)C(F)(F)F)c(N)c2C(N)=O)cc1 [pirtobrutinib] | 13.05% | -0.47% | -0.23% | 0.61% | 4.28% | -0.16% | -6.47% | 4.85% | -2.24% | 30.87% | -8.02% | 3.40% | 4.46% | -1.74%

Source: PMC12586182 (Frontiers in Oncology, 2025)
